According to patent publication US20230041859A1, “USE OF TERPENOIDS IN THE TREATMENT OR PREVENTION OF FIBROTIC DISEASES” (Arjil Biotech Holding Company Limited, priority 2021, published 2023):

Experiments:
[1] = test system: CCl4-induced chronic liver fibrosis; test: CCl4-induced chronic liver fibrosis in rat; conditions: in vivo
Method: Blood samples are collected at week 0, 2, 4, 6, and 8. The animals are sacrificed at the end of the 8-week for histopathological examinations. FIGS. 7A, 7B, 7C depict delta weight, liver weight, and liver/body-weight ratio, respectively.
The level of clinical biochemistry such as aspartate aminotransferase (AST), alanine aminotransferase (ALT), is evaluated to determine the enzymatic activities of the livers of the control groups and the experimental groups (shown in FIGS. 8A-8C).

[2] = test system: cisplatin-induced renal injury; test: Mice model of cisplatin-induced renal injury: serum creatinine (CRE) and BUN; format: in vivo; conditions: compounds, dose not given, daily for 7 days; p<0.001 vs cisplatin group
Method: Determination of biochemical parameters Serum creatinine and serum urea are assessed using colorimetric kits according to manufacturer's instructions. Kits of the former markers are purchased from (HUMAN Diagnostics Worldwide, Magdeburg, Germany) with a chemical analyzer (Roche Diagnostics, Cobas Mira Plus, Rotkreuz, Switzerland).
(§1) Seven-to-eight-week-old male C57BL/6 mice are obtained from the BioLASCO Taiwan Co., Ltd. (Taipei, Taiwan). The animals are housed in Plexiglas cages at a constant temperature of 22±1° C. and a relative humidity of 55±5% on a 12 h dark-light cycle for at least 2 weeks before the experiment. Animals are provided food and water ad libitum. All experimental procedures are performed according to the guidelines of the Institutional Animal Ethics Committee, and the protocol is approved by the Committee for the Purpose of Control and Supervision of Experiments on Animals.
Renal fibrosis is induced via multiple injections of low-dose cisplatin. Intraperitoneal injections of cisplatin (5 mg/kg/injection; P4394, Sigma-Aldrich, St Louis, Mo.) are performed at 0, 1, and 3 weeks, for a total of 3 injections. Mice are sacrificed at 6 weeks after the first dose of cisplatin (n=6). To analyze the effects of samples, mice are given daily intraperitoneal injections for 7 days, starting from 4 weeks after first dose of cisplatin, and sacrificed at […] (n=6). […]

[3] = test system: NO, TNF-α, IL-1β, and IL-6; test: Cisplatin-induced renal injury: pro-inflammatory cytokines in serum (ELISA); format: in vivo, mice; conditions: compound, dose not given
Method: TNF-α, IL-6, and IL-1β cytokines in serum The serum concentration of the pro-inflammatory cytokines (i.e. tumor necrosis factor-α (TNF-α), interleukin-6 (IL-6), and IL-1β) in serum are assessed with relevant enzyme-linked immunosorbent assay (ELISA) kits (Biosource International Inc., Sunnyvale, Calif., USA), based on the manufacturer's instructions.
as §1
Renal fibrosis is induced via multiple injections of low-dose cisplatin. Intraperitoneal injections of cisplatin (5 mg/kg/injection; P4394, Sigma-Aldrich, St Louis, Mo.) are performed at 0, 1, and 3 weeks, for a total of 3 injections. Mice are sacrificed at 6 weeks after the first dose of cisplatin (n=6). […]

[4] = test system: Con A-induced acute hepatitis; test: Con A (concanavalin A) induced acute hepatitis in BALB/c mice; format: in vivo; conditions: 24 h after Con A; mean±SEM; vehicle 1.4±0.2
Description: Intravenous injection of concanavalin A (Con A) is a widely used strategy to study T cell mediated hepatitis. Con A is a lectin that can activate CD4^+ T cells, produce cytokines, and lead to liver cell damage. Dexamethasone (Dex) is a long acting synthetic corticosteroid, and has been used as anti-inflammatory and immunosuppressive medication.
Male BALB/c mice (7-9 weeks old) were purchased from BioLASCO Taiwan Co., Ltd or National Laboratory Animal Center (NLAC, Taiwan). Animals are housed five per cage with food and water provided ad libitum throughout the experiments. Room temperature is maintained at 23±2° C. with an alternating 12 h light dark cycle. Animals are acclimatized for one week to minimize the effect of stress before the experiments. All experimental protocols involving animals and their care are approved by the Institutional Animal Care and Use Committee (IACUC) in ITRI (ITRI-IACUC-2018-041 and ITRI-IACUC-2018-050; accredited by AAALAC) and are carried out according to the regulations of the Council of Agriculture, Taiwan. […]
To assess the level of hepatocellular injury after Con A treatment, serum GPT and GOT levels are measured by Fuji Dri-Chem slides (Fuji, Japan). […] Cytokine levels are measured by ProcartaPlex™ immunoassays kit according to manufacturer's instructions. […]

HepG2 cells = test: Oleic acid-induced steatosis in HepG2 cells (Oil Red O); format: cell-based, human; conditions: 6 h pre-treatment, then 0.5 mM OA for 24 h, OD 510 nm, at noncytotoxic concentration
Method: Oleic acid (OA) induced steatosis in HepG2 cells and may consider an in vitro model for human fatty liver disease. HepG2 cells were treated with different concentrations of oleic acid (OA) to induce steatosis. Intracellular lipid was stained by Oil Red O (ORO), and quantified by colorimetric assay. 0.5 mM OA was chosen for further studies (FIGS. 37 and 38). HepG2 cells were treated with test compounds ([…]) and incubated for 48 h (FIG. 39). HepG2 cells were seeded in 24-well plates and deprived from FBS for 24 h. These cells were then treated with different concentrations of test compounds for 6 h before induced with 0.5 mM OA for 24 h. Cells were gently washed with PBS and fixed using paraformaldehyde at RT, then stained with Oil Red (ORO) solution for 30 min at RT. ORO stain was extracted using pure isopropanol and the optical density was detected at 510 nm (FIG. 40).

[5] = test system: cisplatin-induced renal injury; test: Cisplatin-induced renal injury: kidney histopathology (H&E); format: in vivo, mice; conditions: compound, dose not given
Description: Kidney histopathology The anterior portion of the left lateral liver lobe from each mouse is fixed in 10% formaldehyde phosphate buffer, embedded in paraffin, cut into 5 μm sections, and then treated with an hematoxylin and eosin (H&E) stain for histological examination under the light microscopy (Nikon, ECLIPSE, TS100, Tokyo, Japan). Images are captured with a digital camera (NIS-Elements D 2.30, SP4, Build 387) at an original magnification of 400×.
as §1
Renal fibrosis is induced via multiple injections of low-dose cisplatin. […]
The histopathological changes are analyzed to determine whether Antrodia camphorata extract and compounds affected renal failure in cisplatin-stimulated mice. […]

`C=C1C(=O)O[C@H]2/C=C(\C)CC3C=C(CC/C=C(\C)CC[C@H]12)C(=O)O3` (stereo partly drawn) [AR100-DS1, Ovatodiolide] was tested, and the “CCl4-induced liver injury, overall” value [1] was “potential to partially repair”, the “renal protection effect (normalization of serum CRE and BUN)” value [2] was “significant renal protection effect” and the “NO, TNF-α, IL-1β, and IL-6 production after cisplatin challenge” value [3] was “improved”. For the same compound, the “liver necrosis histopathological score (0 to 4)” value [4] was 0.2±0.2, the “OA-induced steatosis in HepG2 cells” value (HepG2 cells) was “inhibition” and the “necrosis and inflammatory infiltrating cells in the kidney tissue” value [5] was “significantly improved”.
